Laboratory results from BindingDB's records for doi:10.7270/Q2CV4GCW (The Scripps Research Institute Molecular Screening Center, 2014).

The molecules below were run against T1, Group 3 secretory phospholipase A2 (Homo sapiens, UniProt Q9NZ20) (assay: HGIII-sPLA2 enzyme inhibition potency – biochemical, QFRET, IC50, dose response (AID 743457)).
T1 sequence (Q9NZ20 whole entry): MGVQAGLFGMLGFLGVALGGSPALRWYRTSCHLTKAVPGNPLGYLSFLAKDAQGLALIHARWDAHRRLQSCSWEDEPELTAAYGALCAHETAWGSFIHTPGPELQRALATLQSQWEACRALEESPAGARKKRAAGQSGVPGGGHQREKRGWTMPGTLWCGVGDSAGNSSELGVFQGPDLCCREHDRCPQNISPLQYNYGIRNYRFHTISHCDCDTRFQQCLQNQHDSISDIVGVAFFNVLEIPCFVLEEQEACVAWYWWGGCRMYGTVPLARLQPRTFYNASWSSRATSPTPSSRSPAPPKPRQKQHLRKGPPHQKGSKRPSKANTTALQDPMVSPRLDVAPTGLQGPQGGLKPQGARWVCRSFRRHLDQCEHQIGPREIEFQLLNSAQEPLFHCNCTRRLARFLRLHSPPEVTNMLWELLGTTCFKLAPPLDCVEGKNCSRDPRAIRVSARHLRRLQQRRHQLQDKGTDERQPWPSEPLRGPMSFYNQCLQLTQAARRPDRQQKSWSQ
With COC(=O)CCC(=O)OC1(C)C(=O)C2=CN(CCCOC(C)C)C(c3ccc(OC)cc3)=CC2=C(Br)C1=O (stereo not drawn) [4-O-[5-bromo-3-(4-methoxyphenyl)-7-methyl-6,8-dioxo-2-(3-propan-2-yloxypropyl)isoquinolin-7-yl] 1-O-methyl butanedioate] the IC50 was 122 µM.
Molecule Cc1ccc(-n2ncc3c(NNC(=O)c4ccco4)ncnc32)cc1C [MLS001235991] has an IC50 of 122 µM.
For CCCCn1c(NS(=O)(=O)c2ccccc2)c(C(=O)OCC)c2nc3ccccc3nc21 [MLS000589117], the IC50 was 40.6 µM.
C=CCSC(N)=NN=CC1C=C(Br)C=C([N+](=O)[O-])C1=O (stereo not drawn) [N''-[[(E)-(3-bromo-5-nitro-6-oxo-1-cyclohexa-2,4-dienylidene)methyl]amino]carbamimidothioic acid prop-2-enyl ester] gave an IC50 of 40.6 µM.
O=C1c2ccccc2SC1/C=N/c1cc([N+](=O)[O-])ccc1O (stereo not drawn) [(2Z)-2-[[(5-nitro-2-oxidanyl-phenyl)amino]methylidene]-1-benzothiophen-3-one] was tested, and the IC50 was 122 µM.
Molecule Cc1ccc(O)c(-c2cc(C(=O)Nc3ccc(S(=O)(=O)Nc4nccc(C)n4)cc3)[nH]n2)c1 [5-(2-Hydroxy-5-methyl-phenyl)-2H-pyrazole-3-carboxylic acid [4-(4-methyl-pyrimidin-2-ylsulfamoyl)-phenyl]-amide] has an IC50 of 122 µM.
Cc1n[nH]c(N=Nc2ccc(O)cc2)n1 [4-[(5-methyl-1H-1,2,4-triazol-3-yl)hydrazinylidene]cyclohexa-2,5-dien-1-one] was tested, and the IC50 was 20.5 µM.
In the case of NS(=O)(=O)c1ccc(Nc2nc3ccccc3nc2NS(=O)(=O)c2cccc([N+](=O)[O-])c2)cc1, the IC50 is reported as 42.5 µM.
For CSCc1nc2sc(C(=O)Nc3nc(C)cs3)c(C)c2c(=O)[nH]1 [5-methyl-2-(methylsulfanylmethyl)-N-(4-methyl-1,3-thiazol-2-yl)-4-oxo-3H-thieno[2,3-d]pyrimidine-6-carboxamide], the IC50 was 122 µM.
Work on Cc1c(Cl)cccc1N=C(S)NCCc1ccc(S(N)(=O)=O)cc1 yielded an IC50 of 122 µM.
For COc1ccc(C=NNC(=O)CSc2n[nH]c(=O)[nH]c2=O)cc1 [2-[[3,5-bis(oxidanylidene)-2H-1,2,4-triazin-6-yl]sulfanyl]-N-[(4-methoxyphenyl)methylideneamino]ethanamide], the IC50 was 48 µM.
With O=C1C([N+](=O)[O-])=CC(Cl)=CC1/C=N/NC(=O)C(O)(c1ccccc1)c1ccccc1 (stereo not drawn) [N''''-[(E)-(3-chloro-5-nitro-6-oxocyclohexa-2,4-dien-1-ylidene)methyl]-2-hydroxy-2,2-diphenylacetohydrazide] the IC50 was 32.5 µM.
COCCN1C(=O)/C(=C/c2c(OC)cc(OC)cc2OC)C(=O)N(c2ccccc2)C1=O was tested, and the IC50 was 100 µM.
With CCN(CC)c1nc2c3c(nc4c(c3c1C#N)CC(=O)N4c1ccc(Cl)cc1)NC(C)=N2 [MLS000389664] the IC50 was 25 µM.
Cc1ccc(C(=O)n2c3ccccc3c3ccccc32)cc1 [carbazol-9-yl-(4-methylphenyl)methanone] showed an IC50 of 30.3 µM.
In the case of COc1cc(/C=C(/C#N)c2nc3ccccc3[nH]2)ccc1OCc1ccc(C(=O)O)o1 [5-[[4-[(Z)-2-(1H-benzimidazol-2-yl)-2-cyanoethenyl]-2-methoxyphenoxy]methyl]-2-furancarboxylic acid], the IC50 is reported as 66.3 µM.
For Cc1noc(/C=C/N(C)C)c1S(=O)(=O)N1CCCC(C(=O)NCc2ccco2)C1 (stereo not drawn), the IC50 was 122 µM.
Cc1ccc(C(=O)Nc2nc(C(C)(C)C)cs2)s1 [N-(4-tert-butyl-2-thiazolyl)-5-methyl-2-thiophenecarboxamide] showed an IC50 of 122 µM.
